Columns and labels:
[1] = test system: methanogens in soils (mcrA, methyl coenzyme-M reductase gene); assay: Activity of methanogens in soils (mcrA gene copy number); settings: for Activity of methanogens (mcrA gene copy no./g soil): 20 mg/kg in soils at fresh water conditions, cultivation for 50 days; for mcrA gene copy number reduced compared to the control: 20 mg/kg in soils, 50 days, vs control
Text: (§1) It is known that coenzyme M (hereinbelow, “Co-M”), which is produced during the intercellular reactions of methanogens, is an inhibitor for specifically inhibiting the methanogenic activity of methanogens. Accordingly, ethephon was selected in the present invention as a structural analogue of Co-M. Specifically, CES (2-chloroethane sulfonate), BES (2-bromoethane sulfonate), and MES (2-mercaptoethane sulfonate) that are known as a structural analogue of Co-M, and ethephon (IUPAC name: 2-chloroethyl phosphonic acid) selected as a structural analogue of Co-M in the present invention were applied, each at the same concentration (20 mg/kg), to soils at fresh water conditions. Then, along with cultivation for 50 days, methane concentration in headspace and activity of the methanogens in soils were measured.
(§2) First, methane concentration in headspace was measured and emission amount of methane gas was analyzed.

methanogens in soils = assay: Methane concentration in headspace of soils at fresh water conditions treated with Co-M structural analogues; settings: for Methane concentration in headspace: 20 mg/kg in soils at fresh water conditions, cultivation for 50 days; for methane emission amount reduced compared to the control: 20 mg/kg in soils, 50 days, vs soils without sample treatment
Text: as §1, §2

[2] = test system: methanogens in soils of flooded rice paddies; assay: Methane emission from soils of flooded rice paddies during rice cultivation after fertilizer application; type: in vivo; settings: for Methane emission: applied before rice transplanting
Method: To acetone in which ethephon has been dissolved at various concentrations based on the blending ratio described in the following Table 4, cellulose acetate was added and dissolved therein. After mixing the resultant with gypsum and drying the mixture till to have evaporation of acetone, the mixture was crushed to have particle size of not more than 2 mm. Accordingly, fertilizer capable of reducing methane emission amount by delaying the ethephon degradation in soils was prepared. Since acetone is highly volatile so that it can completely evaporate during the process of mixing and drying ethephon, cellulose acetate, and gypsum, it is used in minimum amount depending on the total amount of mixture. Meanwhile, the ethephon treatment amount of 2 kg/ha, 6 kg/ha, and 10 kg/ha means that ethephon is applied at concentration of 1 mg/kg, 3 mg/kg, and 5 mg/kg (ppm), respectively, in soils.
(§3) Fertilizer composition prepared by mixing ethephon, cellulose acetate, and gypsum at various mixing ratios was applied in an amount of 2 ton/ha to soils of flooded rice paddies before rice transplanting. Then, emission amount of methane during the subsequent process of cultivating rice, effect of inhibiting methane emission, and yield property of rice were analyzed.

rice = assay: Yield property of rice after fertilizer application; type: in vivo, Oryza sativa
Method: as §3

[3] = ethephon 2 kg/ha with gypsum 1940 kg/ha and CA 60 kg/ha
[4] = ethephon 6 kg/ha with gypsum 1940 kg/ha and CA 60 kg/ha
[5] = ethephon 10 kg/ha with gypsum 1940 kg/ha and CA 60 kg/ha

O=S(=O)([O-])CCBr.[Na+] [BES, 2-bromoethane sulfonate]
Activity of methanogens (mcrA gene copy no./g soil) [1]: 1.65 × 10^6 mcrA gene copy no./g soil
mcrA gene copy number reduced compared to the control [1]: ~45%
Methane concentration in headspace (methanogens in soils): 4.4 mg/L
methane emission amount reduced compared to the control (methanogens in soils): ~56%

O=S(=O)([O-])CCCl.[Na+] [CES, 2-chloroethane sulfonate]
Activity of methanogens (mcrA gene copy no./g soil) [1]: 1.86 × 10^6 mcrA gene copy no./g soil
mcrA gene copy number reduced compared to the control [1]: about 39%
Methane concentration in headspace (methanogens in soils): 5.1 mg/L
methane emission amount reduced compared to the control (methanogens in soils): about 48%

O=P(O)(O)CCCl [Ethephon, 2-chloroethyl phosphonic acid]
Activity of methanogens (mcrA gene copy no./g soil) [1]: 1.35 × 10^6 mcrA gene copy no./g soil
mcrA gene copy number reduced compared to the control [1]: ~55%
Methane concentration in headspace (methanogens in soils): 4.4 mg/L
methane emission amount reduced compared to the control (methanogens in soils): ~56%
Effect of inhibiting methanogenesis [2, 3]: 50.5%
Methane emission [2, 3]: 36.9 kg CH4 ha^−1
Effect of inhibiting methanogenesis [2, 4]: 78.6%
Methane emission [2, 4]: 15.9 kg CH4 ha^−1
Effect of inhibiting methanogenesis [2, 5]: 98.1%
Methane emission [2, 5]: 1.4 kg CH4 ha^−1
Effect of inhibiting methanogenesis ([2]; ethephon 10 kg/ha with gypsum 1940 kg/ha and CA 60 kg/ha, listed as ethephon): about 98.1%
methane gas emission amount from flooded rice paddies ([2]; fertilizer containing ethephon vs fertilizer not containing any ethephon): significantly lower
Grain yield (rice; [3]): 6331 kg/ha
Straw yield (rice; [3]): 6964 kg/ha
Yield index (rice; [3]): 100
change in rice yield in relation to the application amount of ethephon (rice; ethephon 2 to 10 kg/ha in fertilizer): no significant change in rice yield
Grain yield (rice; [4]): 6298 kg/ha
Straw yield (rice; [4]): 6928 kg/ha
Yield index (rice; [4]): 99.6
Grain yield (rice; [5]): 6315 kg/ha
Straw yield (rice; [5]): 6946 kg/ha
Yield index (rice; [5]): 99.9
